Calls of active or inactive are those of the source. No cut-off for these calls is given here.
Columns and labels:
HUVEC = test: Cytotoxicity against human HUVEC cells assessed as reduction in cell viability; format: toxicity, cell-based
[1] = MRT in ICR mouse at 10 mg/kg, po by LC-MS/MS analysis; format: ADME, organism-based; settings: in vivo
PC-9 [2] = test: Induction of interaction between RNF149/EGFR mutant in human PC-9 cells assessed as disruption of EGFR mutant/HSP90 complex formation at 2 uM measured after 6 hrs by co-immunoprecipitation analysis; format: cell-based
[3] = Tmax in ICR mouse at 10 mg/kg, po by LC-MS/MS analysis; format: ADME, organism-based; settings: in vivo
[4] = Toxicity in mouse assessed as pathological changes in spleen administered for 14 days by Hematoxylin-Eosin staining based analysis; format: tissue-based; settings: in vivo, 336 h, time 14 day
[5] = Half life of the compound in mouse liver microsomes at 1 uM in presence of NADPH by LC-MS/MS analysis; format: ADME, Microsome
[6] = Intrinsic clearance of the compound in human liver microsomes at 1 uM in presence of NADPH by LC-MS/MS analysis; format: ADME, Microsome; settings: read-out: CLH
[7] = Toxicity in mouse assessed as pathological changes in heart administered for 14 days by Hematoxylin-Eosin staining based analysis; format: tissue-based; settings: in vivo, 336 h, time 14 day
[8] = Tmax in ICR mouse at 1 mg/kg, iv by LC-MS/MS analysis; format: ADME, organism-based; settings: in vivo
HCC827 [9] = test: Inhibition of cell invasion in human HCC827 cells at 0.25 to 2 uM incubated for 12 hrs by Transwell assay; format: functional, cell-based; settings: dose 0.25-2 µM
BEAS-2B = test: Cytotoxicity against human BEAS-2B cells assessed as reduction in cell viability; format: toxicity, cell-based
[10] = Cmax in ICR mouse at 1 mg/kg, iv by LC-MS/MS analysis; format: ADME, organism-based; settings: in vivo
HCC827 [11] = test: Induction of cell cycle arrest in human HCC827 cells assessed as increase in cell accumulation at G1 phase at 0.5 to 2 uM incubated for 24 hrs by propidium iodide staining based flow cytometry; format: functional; settings: dose 0.5-2 µM
PC-9 [12] = test: Inhibition of cell invasion in human PC-9 cells at 0.5 to 1 uM incubated for 24 hrs by wound healing analysis; format: functional, cell-based; settings: dose 0.5-1 µM
PC-9 [13] = test: SiHyT-mediated degrader activity at RNF149/EGFR mutant in human PC-9 cells assessed as induction of EGFR degradation by measuring decrease in EGFR level at 2 uM measured after 9 hrs by western blot analysis; format: cell-based
[14] = AUC in ICR mouse at 1 mg/kg, iv by LC-MS/MS analysis; format: ADME, organism-based; settings: in vivo
[15] = tested on: E3 ubiquitin-protein ligase RNF149/Epidermal growth factor receptor (Homo sapiens), P00533+Q8NC42 [UNDEFINED MUTATION]; test: SiHyT-mediated degrader activity at […] mutant in human HCC827 cells assessed as decrease in EGFR expression level at 2 uM measured after 12 hrs by proteomics analysis; format: cell-based
Sequence of E3 ubiquitin-protein ligase RNF149/Epidermal growth factor receptor (Homo sapiens), P00533+Q8NC42 [UNDEFINED MUTATION] (P00533 whole entry, looked up, change not shown): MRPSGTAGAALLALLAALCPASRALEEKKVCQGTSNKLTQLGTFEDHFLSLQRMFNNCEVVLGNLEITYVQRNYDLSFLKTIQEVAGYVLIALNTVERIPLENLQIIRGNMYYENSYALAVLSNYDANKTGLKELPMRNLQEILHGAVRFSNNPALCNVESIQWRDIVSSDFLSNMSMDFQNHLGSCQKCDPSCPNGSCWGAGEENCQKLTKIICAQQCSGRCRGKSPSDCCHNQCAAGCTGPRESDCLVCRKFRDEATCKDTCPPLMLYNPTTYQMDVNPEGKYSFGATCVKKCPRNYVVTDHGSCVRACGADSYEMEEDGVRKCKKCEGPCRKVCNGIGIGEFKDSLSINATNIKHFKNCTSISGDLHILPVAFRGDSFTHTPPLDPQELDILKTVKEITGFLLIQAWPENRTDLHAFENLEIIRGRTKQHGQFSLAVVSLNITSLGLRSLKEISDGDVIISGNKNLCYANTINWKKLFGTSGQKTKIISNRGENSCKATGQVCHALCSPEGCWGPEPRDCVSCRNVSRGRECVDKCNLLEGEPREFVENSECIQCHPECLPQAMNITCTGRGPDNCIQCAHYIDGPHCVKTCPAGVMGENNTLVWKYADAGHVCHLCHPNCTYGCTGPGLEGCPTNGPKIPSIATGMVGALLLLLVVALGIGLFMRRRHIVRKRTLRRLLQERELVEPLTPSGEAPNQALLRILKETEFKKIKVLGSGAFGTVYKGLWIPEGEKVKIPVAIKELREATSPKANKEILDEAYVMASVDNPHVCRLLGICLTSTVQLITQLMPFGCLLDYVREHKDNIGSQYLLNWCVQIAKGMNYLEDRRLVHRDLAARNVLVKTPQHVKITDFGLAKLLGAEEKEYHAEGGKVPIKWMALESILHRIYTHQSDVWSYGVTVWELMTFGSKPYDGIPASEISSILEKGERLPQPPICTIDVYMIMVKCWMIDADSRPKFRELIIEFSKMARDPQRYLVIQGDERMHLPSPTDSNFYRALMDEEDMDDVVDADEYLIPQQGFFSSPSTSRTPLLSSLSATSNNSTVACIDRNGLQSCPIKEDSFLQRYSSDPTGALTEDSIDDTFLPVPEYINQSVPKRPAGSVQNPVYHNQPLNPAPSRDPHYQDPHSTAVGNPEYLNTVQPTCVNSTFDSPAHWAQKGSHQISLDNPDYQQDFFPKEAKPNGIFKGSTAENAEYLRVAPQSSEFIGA
Sequence of E3 ubiquitin-protein ligase RNF149/Epidermal growth factor receptor (Homo sapiens), P00533+Q8NC42 [UNDEFINED MUTATION] (Q8NC42 whole entry, looked up, change not shown): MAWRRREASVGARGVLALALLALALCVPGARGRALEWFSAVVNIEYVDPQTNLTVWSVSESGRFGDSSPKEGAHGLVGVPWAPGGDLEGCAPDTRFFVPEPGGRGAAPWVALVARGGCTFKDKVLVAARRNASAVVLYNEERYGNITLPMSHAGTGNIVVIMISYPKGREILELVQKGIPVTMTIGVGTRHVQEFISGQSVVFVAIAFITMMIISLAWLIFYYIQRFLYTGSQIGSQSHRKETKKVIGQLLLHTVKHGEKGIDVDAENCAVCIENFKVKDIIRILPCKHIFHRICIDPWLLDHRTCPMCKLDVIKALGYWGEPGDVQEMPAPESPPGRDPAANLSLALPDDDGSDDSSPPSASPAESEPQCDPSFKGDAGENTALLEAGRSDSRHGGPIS

PC-9 [16] = test: Induction of cell cycle arrest in human PC-9 cells assessed as increase in cell accumulation at G1 phase at 0.5 to 2 uM incubated for 24 hrs by propidium iodide staining based flow cytometry; format: functional; settings: dose 0.5-2 µM
PC-9 [17] = test: Induction of interaction between RNF149/EGFR mutant in human PC-9 cells by pull-down based LC-MS/MS analysis; format: cell-based
PC-9 [18] = test: Induction of interaction between RNF149/EGFR mutant in human PC-9 cells assessed as disruption of EGFR mutant/HSP70 complex formation at 2 uM measured after 6 hrs by co-immunoprecipitation analysis; format: cell-based
[19] = MRT in ICR mouse at 1 mg/kg, iv by LC-MS/MS analysis; format: ADME, organism-based; settings: in vivo
[20] = tested on: E3 ubiquitin-protein ligase RNF149/Epidermal growth factor receptor (Homo sapiens), P00533+Q8NC42 [UNDEFINED MUTATION]; test: SiHyT-mediated degrader activity at RNF149/EGFR mutant in human HCC827 cells assessed as induction of EGFR degradation by measuring decrease in EGFR expression level at 1 uM pretreated with proteasome inhibitor, MG-132 for 4 hrs followed by incubation with compound for 24 hrs by western blot analysis; format: cell-based
PC-9 [21] = test: SiHyT-mediated degrader activity at RNF149/EGFR mutant in human PC-9 cells assessed as induction of EGFR degradation by measuring EGFR expression level at 2 uM incubated for 24 hrs followed by drug wash-out and measured after 24 hrs by western blot analysis; format: cell-based
PC-9 [22] = test: Induction of interaction between RNF149/EGFR mutant in human PC-9 cells measured after 6 hrs by co-immunoprecipitation analysis; format: cell-based
PC-9 [23] = test: SiHyT-mediated degrader activity at RNF149/EGFR mutant in human PC-9 cells assessed as increase in EGFR ubiquitination level at 2 uM pretreated with MG132 for 2 hrs followed by incubation with compound for 9 hrs by immunoprecipitation based western blot analysis; format: cell-based
PC-9 [24] = test: Induction of apoptosis in human PC-9 cells at 0.5 to 2 uM incubated for 48 hrs by AnnexinV-FITC/PI staining based flow cytometry; format: functional, cell-based; settings: dose 0.5-2 µM
[25] = tested on: E3 ubiquitin-protein ligase RNF149/Epidermal growth factor receptor (Homo sapiens), P00533+Q8NC42 [UNDEFINED MUTATION]; test: SiHyT-mediated degrader activity at RNF149/EGFR mutant in human HCC827 cells assessed as induction of EGFR degradation at 1 uM cells incubated in serum-free media for 8 hrs followed by incubation with compound for 24 hrs by western blot analysis; format: cell-based
PC-9 [26] = test: SiHyT-mediated degrader activity at RNF149/EGFR mutant in human PC-9 cells assessed as induction of EGFR degradation by measuring decrease in EGFR level at 2 uM measured after 24 hrs by western blot analysis; format: cell-based
[27] = Half life in ICR mouse at 10 mg/kg, po by LC-MS/MS analysis; format: ADME, organism-based; settings: in vivo
HCC827 [28] = test: Induction of apoptosis in human HCC827 cells at 0.5 to 2 uM incubated for 48 hrs by AnnexinV-FITC/PI staining based flow cytometry; format: functional, cell-based; settings: dose 0.5-2 µM
PC-9 [29] = test: SiHyT-mediated degrader activity at RNF149/EGFR mutant in human PC-9 cells assessed as induction of EGFR degradation by measuring decrease in half-time of EGFR at 2 uM incubated for 6 to 24 hrs in presence of protein synthesis inhibitor, cycloheximide by western blot analysis; format: cell-based; settings: time 6-24 hrs
[30] = Oral bioavailability in ICR mouse at 10 mg/kg by LC-MS/MS analysis; format: ADME, organism-based; settings: in vivo
[31] = Toxicity in mouse assessed as pathological changes in lungs administered for 14 days by Hematoxylin-Eosin staining based analysis; settings: in vivo, 336 h, time 14 day
[32] = tested on: E3 ubiquitin-protein ligase RNF149/Epidermal growth factor receptor (Homo sapiens), P00533+Q8NC42 [UNDEFINED MUTATION]; test: SiHyT-mediated degrader activity at RNF149/EGFR mutant in human HCC827 cells assessed as induction of EGFR degradation by measuring EGFR expression level at 1 uM incubated for 24 hrs followed by drug wash-out and measured after 24 hrs by western blot analysis; format: cell-based
PC-9 [33] = test: SiHyT-mediated degrader activity at RNF149/EGFR mutant in human PC-9 cells assessed as induction of EGFR degradation at 1 uM in presence of HSP90 inhibitor, geldanamycin by western blot analysis; format: cell-based
[34] = Toxicity in mouse assessed as pathological changes in kidneys administered for 14 days by Hematoxylin-Eosin staining based analysis; settings: in vivo, 336 h, time 14 day
[35] = (§1) SiHyT-mediated degrader activity at RNF149/EGFR mutant in human PC-9 cells assessed as induction of EGFR degradation cells incubated in serum-free media for 8 hrs followed by incubation with compound for 24 hrs by western blot analysis; format: cell-based
PC-9 [36] = test: as §1; format: cell-based
[37] = Toxicity in mouse assessed as pathological changes in liver administered for 14 days by Hematoxylin-Eosin staining based analysis; format: tissue-based; settings: in vivo, 336 h, time 14 day

Structure (SMILES): COc1cc2ncnc(Nc3ccc(F)c(Cl)c3)c2cc1OCCn1cc(CCCO[Si](c2ccccc2)(c2ccccc2)C(C)(C)C)nn1
- Activity (HUVEC): Toxic
- MRT [1]: 2.57 h
- Activity (PC-9 [2]): Active
- Tmax [3]: 1 h
- Activity [4]: Non-toxic
- half-life at 1 µM [5]: > 1 h
- CLint scaled at 1 µM [6]: 9.3 mL/min/kg
- Activity [7]: Non-toxic
- Tmax [8]: 4.8 min
- inhibition (HCC827 [9]): Active
- Activity (BEAS-2B): Toxic
- Cmax [10]: 2210 ng/mL
- Activity (HCC827 [11]): Dose-dependent-effect
- inhibition (PC-9 [12]): Active
- Activity (PC-9 [13]): Active
- AUC [14]: 2164.76 ng·mL·h
- Activity [15]: Active
- Activity (PC-9 [16]): Dose-dependent-effect
- Activity (PC-9 [17]): Active
- Activity (PC-9 [18]): inactive
- MRT [19]: 2.72 h
- Activity [20]: inactive
- Activity (PC-9 [21]): inactive
- Activity (PC-9 [22]): Active
- Activity (PC-9 [23]): Active
- Activity (PC-9 [24]): Dose-dependent-effect
- Activity [25]: 87.2%
- Activity (PC-9 [26]): Active
- half-life [27]: 1.29 h
- Activity (HCC827 [28]): Dose-dependent-effect
- Activity (PC-9 [29]): Active
- bioavailability [30]: 8.67%
- Activity [31]: Non-toxic
- Activity [32]: inactive
- Activity (PC-9 [33]): Active
- Activity [34]: Non-toxic
- DC50 [35]: 1.42 µM
- Activity (PC-9 [36]): Dose-dependent-effect
- Activity [37]: Non-toxic

Reference: ChEMBL document CHEMBL6074674, “Development of Novel Silicon-Based Hydrophobic Tags (SiHyT) for Targeted Proteins Degradation” (J Med Chem, 2024)
